Assay results: US20180200257A1, “METHODS FOR THE TREATMENT OF INFLAMMATORY DISORDERS” (Galapagos NV, priority 2015, published 2018)

Test system: Subjects With Active Crohn's Disease With Evidence of Mucosal Ulceration
Assay: Study 3 - Alanine Aminotransferase (ALT) levels
Assay type: in vivo, human
Description: Double-Blind, Randomized, Placebo-Controlled, Multi-Centre Study to Investigate the Efficacy and Safety of Compound 1 in Subjects With Active Crohn's Disease With Evidence of Mucosal Ulceration. This is a double-blind, randomized, placebo-controlled, multi-centre Phase 2 study to investigate the efficacy and safety of Compound 1 administered once daily for the treatment of active CD with evidence of mucosal ulceration. The pharmacokinetics (including a PK substudy) and pharmacodynamics of Compound 1 and metabolite in CD will also be characterised. A total of 180 eligible subjects will be randomized to receive Compound 1 or placebo in addition to their stable background treatment (eg, corticosteroids, aminosalicylates, or CD-related antibiotics). The study will consist of 2 parts, with total treatment duration of 20 weeks. Randomization in Part 1 will be stratified according the subject's previous anti-TNF exposure/response, CRP level at Screening, and oral corticosteroid use at visit Day −1. After the first 10 weeks of treatment in Part 1, patients will be re-randomized for Part 2 as shown in the diagram below and will be stratified according to the subject's clinical response, previous anti-TNF exposure/response, and oral corticosteroid use at visit Day -1. [table] ALT levels determination is available at Quest Diagnostics, Clinical Trials, Quest House, 125-135 Staines Road, Hounslow, Middlesex, TW3 3JB, United Kingdom under Catalogue n#84460. ALT catalyzes the exchange of the amino group of alanine with the oxogroup of 2-ketoglutarate to form pyruvate and glutamate. In the presence of lactic dehydrogenase, pyruvate reacts with NADH to form NAD+, measured spectrophotometrically. Guidelines for the ALT value have been issued by the association for Clinical Biochemistry and Laboratory Medicine, 130-132 Tooley Street LONDON SE1 2TU, united Kingdom, wherein the ALT value should be below 34 U/l in Female and below 52 U/L in male.

[1] = 10 weeks results, 200 mg q.d., week 2
[2] = 10 weeks results, 200 mg q.d., week 4
[3] = 10 weeks results, 200 mg q.d., week 6
[4] = 10 weeks results, 200 mg q.d., week 10
[5] = 20 weeks results, 200 mg q.d. week 0 to 10, to 100 mg q.d. week 10 to 20, week 2
[6] = 20 weeks results, 200 mg q.d. week 0 to 10, to 100 mg q.d. week 10 to 20, week 4
[7] = 20 weeks results, 200 mg q.d. week 0 to 10, to 100 mg q.d. week 10 to 20, week 6
[8] = 20 weeks results, 200 mg q.d. week 0 to 10, to 100 mg q.d. week 10 to 20, week 10
[9] = 20 weeks results, 200 mg q.d. week 0 to 10, to 100 mg q.d. week 10 to 20, week 12
[10] = 20 weeks results, 200 mg q.d. week 0 to 10, to 100 mg q.d. week 10 to 20, week 16
[11] = 20 weeks results, 200 mg q.d. week 0 to 10, to 100 mg q.d. week 10 to 20, week 20
[12] = 20 weeks results, 200 mg q.d. week 0 to 10, to placebo week 10 to 20, week 2
[13] = 20 weeks results, 200 mg q.d. week 0 to 10, to placebo week 10 to 20, week 4
[14] = 20 weeks results, 200 mg q.d. week 0 to 10, to placebo week 10 to 20, week 6
[15] = 20 weeks results, 200 mg q.d. week 0 to 10, to placebo week 10 to 20, week 10
[16] = 20 weeks results, 200 mg q.d. week 0 to 10, to placebo week 10 to 20, week 12
[17] = 20 weeks results, 200 mg q.d. week 0 to 10, to placebo week 10 to 20, week 16
[18] = 20 weeks results, 200 mg q.d. week 0 to 10, to placebo week 10 to 20, week 20
[19] = 20 weeks results, continued 200 mg q.d., week 2
[20] = 20 weeks results, continued 200 mg q.d., week 4
[21] = 20 weeks results, continued 200 mg q.d., week 6
[22] = 20 weeks results, continued 200 mg q.d., week 10
[23] = 20 weeks results, continued 200 mg q.d., week 12
[24] = 20 weeks results, continued 200 mg q.d., week 16
[25] = 20 weeks results, continued 200 mg q.d., week 20
[26] = 20 weeks results, placebo week 0 to 10, to 100 mg q.d. week 10 to 20, week 12
[27] = 20 weeks results, placebo week 0 to 10, to 100 mg q.d. week 10 to 20, week 16
[28] = 20 weeks results, placebo week 0 to 10, to 100 mg q.d. week 10 to 20, week 20

O=C(Nc1nc2cccc(-c3ccc(CN4CCS(=O)(=O)CC4)cc3)n2n1)C1CC1 [Compound 1, cyclopropanecarboxylic acid {5-[4-(1,1-dioxo-thiomorpholin-4-ylmethyl)-phenyl]-[1,2,4]triazolo[1,5-a]pyridin-2-yl}-amide]
Study 3 - ALT Mean CFB [1]: 0.0 IU/L | Study 3 - ALT Mean percentage CFB [1]: 8.3% | Study 3 - ALT Mean CFB [2]: −0.6 IU/L | Study 3 - ALT Mean percentage CFB [2]: 5.8% | Study 3 - ALT Mean CFB [3]: −1.2 IU/L | Study 3 - ALT Mean percentage CFB [3]: 3.1% | Study 3 - ALT Mean CFB [4]: 1.6 IU/L | Study 3 - ALT Mean percentage CFB [4]: 24.4% | Study 3 - ALT Mean CFB [5]: −2.03 IU/L | Study 3 - ALT Mean percentage CFB [5]: −4.84% | Study 3 - ALT Mean CFB [6]: −1.93 IU/L | Study 3 - ALT Mean percentage CFB [6]: −3.24% | Study 3 - ALT Mean CFB [7]: −1.60 IU/L | Study 3 - ALT Mean percentage CFB [7]: −0.60% | Study 3 - ALT Mean CFB [8]: −0.50 IU/L | Study 3 - ALT Mean percentage CFB [8]: 5.92% | Study 3 - ALT Mean CFB [9]: 0.03 IU/L | Study 3 - ALT Mean percentage CFB [9]: 3.56% | Study 3 - ALT Mean CFB [10]: 0.21 IU/L | Study 3 - ALT Mean percentage CFB [10]: 8.83% | Study 3 - ALT Mean CFB [11]: 6.15 IU/L | Study 3 - ALT Mean percentage CFB [11]: 38.62% | Study 3 - ALT Mean CFB [12]: −2.30 IU/L | Study 3 - ALT Mean percentage CFB [12]: 3.63% | Study 3 - ALT Mean CFB [13]: −2.04 IU/L | Study 3 - ALT Mean percentage CFB [13]: 8.87% | Study 3 - ALT Mean CFB [14]: −3.78 IU/L | Study 3 - ALT Mean percentage CFB [14]: 1.03% | Study 3 - ALT Mean CFB [15]: −1.48 IU/L | Study 3 - ALT Mean percentage CFB [15]: 12.60% | Study 3 - ALT Mean CFB [16]: 1.48 IU/L | Study 3 - ALT Mean percentage CFB [16]: 16.15% | Study 3 - ALT Mean CFB [17]: 1.90 IU/L | Study 3 - ALT Mean percentage CFB [17]: 23.87% | Study 3 - ALT Mean CFB [18]: −0.38 IU/L | Study 3 - ALT Mean percentage CFB [18]: 17.82% | Study 3 - ALT Mean CFB [19]: 1.46 IU/L | Study 3 - ALT Mean percentage CFB [19]: 14.82% | Study 3 - ALT Mean CFB [20]: 0.36 IU/L | Study 3 - ALT Mean percentage CFB [20]: 8.36% | Study 3 - ALT Mean CFB [21]: −0.17 IU/L | Study 3 - ALT Mean percentage CFB [21]: 5.47% | Study 3 - ALT Mean CFB [22]: 3.75 IU/L | Study 3 - ALT Mean percentage CFB [22]: 38.09% | Study 3 - ALT Mean CFB [23]: 3.00 IU/L | Study 3 - ALT Mean percentage CFB [23]: 26.61% | Study 3 - ALT Mean CFB [24]: 4.04 IU/L | Study 3 - ALT Mean percentage CFB [24]: 33.15% | Study 3 - ALT Mean CFB [25]: 2.53 IU/L | Study 3 - ALT Mean percentage CFB [25]: 22.15% | Study 3 - ALT Mean CFB [26]: −0.55 IU/L | Study 3 - ALT Mean percentage CFB [26]: 10.24% | Study 3 - ALT Mean CFB [27]: −1.95 IU/L | Study 3 - ALT Mean percentage CFB [27]: 2.75% | Study 3 - ALT Mean CFB [28]: −2.05 IU/L | Study 3 - ALT Mean percentage CFB [28]: 4.96%
